{"source": "patent US9884067B2", "about": "“Androgen receptor down-regulating agents and uses thereof” (UNIVERSITY OF MARYLAND EASTERN SHORE, priority 2013, dated 2018)", "key": {"[1]": {"biological_target": "T1, AR-3 (also called AR-V7) (Homo sapiens, UniProt P10275)", "T1 construct": "endogenous in cells; host or cells: CWR22Rv1", "T1 sequence (P10275 1-644 isoform P10275-3)": "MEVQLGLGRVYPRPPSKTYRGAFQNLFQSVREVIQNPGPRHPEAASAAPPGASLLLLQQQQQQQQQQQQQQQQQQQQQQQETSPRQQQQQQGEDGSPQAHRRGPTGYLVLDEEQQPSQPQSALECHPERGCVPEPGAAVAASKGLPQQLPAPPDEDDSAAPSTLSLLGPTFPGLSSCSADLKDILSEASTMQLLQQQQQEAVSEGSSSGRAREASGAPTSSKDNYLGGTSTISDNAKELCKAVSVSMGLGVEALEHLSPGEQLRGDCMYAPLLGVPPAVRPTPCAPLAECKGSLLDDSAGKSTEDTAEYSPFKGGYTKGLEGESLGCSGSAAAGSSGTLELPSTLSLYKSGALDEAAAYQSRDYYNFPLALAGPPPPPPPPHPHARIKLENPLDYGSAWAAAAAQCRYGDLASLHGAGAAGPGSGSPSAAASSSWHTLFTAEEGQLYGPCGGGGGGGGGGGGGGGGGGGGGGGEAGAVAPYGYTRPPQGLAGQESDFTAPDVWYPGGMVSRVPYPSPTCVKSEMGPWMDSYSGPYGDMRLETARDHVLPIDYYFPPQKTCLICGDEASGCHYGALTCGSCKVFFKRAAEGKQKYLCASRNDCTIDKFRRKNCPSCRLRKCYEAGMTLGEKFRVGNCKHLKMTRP", "test": "Down-regulation of truncated AR splice variant, western blot in CWR22rv1 cells", "type": "cell-based", "conditions": "CWR22rv1 prostate cancer cell line", "description": "(§1) Due to the potential implication of AR splice variants lacking the ligand-binding domain (truncated AR) in driving the progression of CRPC, the effects of the compounds on the down-regulation of AR-3 (also called AR-V7) were determined.\n(§2) For the Western blot analyses, LNCaP or CWR22v1 prostate cancer cells were cultured. The cells were then treated with the indicated compounds and whole cell lysates were prepared using RIPA lysis buffer (Sigma Aldrich) and protease and phosphatase inhibitors (Sigma Aldrich). All of the antibodies were ordered from cell signaling technology. Protein content was determined using the Bradford Assay (Bio-Rad, Hercules, Calif., USA). Protein was subjected to SDS-PAGE and transferred onto nitrocellulosemembrane. Membranes were then incubated with secondary antibody (cell signaling technology) at room temperature for 1 hour. Bands were visualized by chemiluminescence (Millipore). Protein expression was normalized to β-actin and densitometry was carried out using Image J or ImageQuant 5.0 (Molecular Dynamics, Sunnyvale, Calif., USA)."}, "[2]": {"system": "full-length AR", "test": "Down-regulation of full-length AR, western blot in CWR22rv1 cells", "type": "cell-based, human", "conditions": "CWR22rv1 prostate cancer cell line", "description": "as §1, §2"}, "[3]": {"biological_target": "T2, human CYP17A1 (CYP171dH) (Homo sapiens, UniProt P05093)", "T2 sequence (P05093 with tags, fused parts or gaps limits assumed)": "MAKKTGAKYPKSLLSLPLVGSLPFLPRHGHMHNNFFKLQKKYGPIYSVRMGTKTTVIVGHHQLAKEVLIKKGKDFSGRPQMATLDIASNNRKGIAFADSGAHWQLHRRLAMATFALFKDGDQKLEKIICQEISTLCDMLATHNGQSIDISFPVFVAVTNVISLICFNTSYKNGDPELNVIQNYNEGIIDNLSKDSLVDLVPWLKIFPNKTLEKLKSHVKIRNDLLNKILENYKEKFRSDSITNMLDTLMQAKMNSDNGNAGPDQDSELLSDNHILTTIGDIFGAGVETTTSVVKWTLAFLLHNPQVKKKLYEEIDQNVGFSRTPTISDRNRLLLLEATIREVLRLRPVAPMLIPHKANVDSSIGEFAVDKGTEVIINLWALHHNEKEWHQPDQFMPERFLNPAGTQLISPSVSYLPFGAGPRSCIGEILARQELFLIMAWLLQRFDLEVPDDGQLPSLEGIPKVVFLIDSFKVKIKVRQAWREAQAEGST", "test": "CYP17 inhibition studies", "type": "biochemical", "conditions": "each in duplicate, from dose-response curves", "description": "Some compounds were evaluated for their ability to inhibit CYP17 enzyme. A truncated version of human CYP17A1 (CYP171dH) was expressed in E. coli and then purified to homogeneity."}, "[4]": {"biological_target": "T3, AR (Homo sapiens, UniProt P10275, T878A)", "T3 construct": "host or cells: LNCaP", "T3 sequence (P10275 1-920 T878A)": "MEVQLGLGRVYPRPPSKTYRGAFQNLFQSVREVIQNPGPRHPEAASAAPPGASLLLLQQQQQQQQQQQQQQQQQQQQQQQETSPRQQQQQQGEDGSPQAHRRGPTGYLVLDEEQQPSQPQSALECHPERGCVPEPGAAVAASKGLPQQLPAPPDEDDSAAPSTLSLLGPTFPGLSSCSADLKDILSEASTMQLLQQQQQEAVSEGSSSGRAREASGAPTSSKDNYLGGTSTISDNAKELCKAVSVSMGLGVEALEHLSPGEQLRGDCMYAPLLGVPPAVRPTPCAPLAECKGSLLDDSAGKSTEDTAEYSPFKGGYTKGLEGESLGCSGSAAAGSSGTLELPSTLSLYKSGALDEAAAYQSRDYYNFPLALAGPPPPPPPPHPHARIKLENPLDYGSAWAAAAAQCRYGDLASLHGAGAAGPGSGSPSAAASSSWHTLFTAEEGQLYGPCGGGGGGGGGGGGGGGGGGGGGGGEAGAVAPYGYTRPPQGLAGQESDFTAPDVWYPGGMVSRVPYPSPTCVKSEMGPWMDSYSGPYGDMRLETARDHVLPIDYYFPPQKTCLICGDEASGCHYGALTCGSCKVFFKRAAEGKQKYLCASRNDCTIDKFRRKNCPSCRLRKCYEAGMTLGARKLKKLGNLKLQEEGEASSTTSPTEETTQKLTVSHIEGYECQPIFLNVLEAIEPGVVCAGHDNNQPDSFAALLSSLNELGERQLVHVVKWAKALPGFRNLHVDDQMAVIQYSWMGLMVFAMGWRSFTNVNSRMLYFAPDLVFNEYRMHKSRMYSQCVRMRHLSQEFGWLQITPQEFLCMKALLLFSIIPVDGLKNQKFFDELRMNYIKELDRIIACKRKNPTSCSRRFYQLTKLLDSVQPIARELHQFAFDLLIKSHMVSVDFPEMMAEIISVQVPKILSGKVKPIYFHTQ", "test": "Immunocytochemical analysis of AR expression in LNCaP cells", "type": "cell-based", "conditions": "5 μM for 48 h"}, "[5]": {"biological_target": "T3, AR", "test": "AR down-regulation, western blot analysis in LNCaP cells", "type": "cell-based", "conditions": "at 15 μM, 24 h", "description": "For the Western blot analyses, LNCaP or CWR22v1 prostate cancer cells were cultured. The cells were then treated with the indicated compounds and whole cell lysates were prepared using RIPA lysis buffer (Sigma Aldrich) and protease and phosphatase inhibitors (Sigma Aldrich). All of the antibodies were ordered from cell signaling technology. Protein content was determined using the Bradford Assay (Bio-Rad, Hercules, Calif., USA). Protein was subjected to SDS-PAGE and transferred onto nitrocellulosemembrane. Membranes were then incubated with secondary antibody (cell signaling technology) at room temperature for 1 hour. Bands were visualized by chemiluminescence (Millipore). Protein expression was normalized to β-actin and densitometry was carried out using Image J or ImageQuant 5.0 (Molecular Dynamics, Sunnyvale, Calif., USA). CWR22Rv1 cells were used for endogenous levels of splice variant AR-3. Protein levels were analyzed with respective antibodies; full length AR and β-actin antibodies were purchased from cell signaling, antibody specific for splice variant AR-3 was obtained from Dr. Yun Qiu, University of Maryland, School of Medicine, Baltimore."}, "[6]": {"biological_target": "T4, AR in LNCaP cells (Homo sapiens, UniProt P10275, T878A)", "T4 sequence (P10275 1-920 T878A)": "T3 sequence (P10275 1-920 T878A)", "test": "Whole cell competitive binding assay with [3H]R1881", "conditions": "read-out: inhibition of [3H]R1881 binding / displacement", "method": "The androgen receptor competitive binding assays were performed with the synthetic androgen methyltrienolone [^3H]R1881. […] To determine the kinetics of [^3H]R1881 binding to the LNCaP AR cells were plated (2-3×10^5 cells/well) in 24 well multiwell dishes in steroid-free medium and allowed to attach. […] Following a 2 hour incubation period at 37° C., cells were washed twice with ice-cold DPBS and solubilized in DPBS containing 0.5% SDS and 20% glycerol. Extracts were removed and cell associated radioactivity counted in a scintillation counter. The data was analyzed, including Kd and Bmax determination, by nonlinear regression using Graphpad Prism software (GraphPad Software, Inc, San Diego, Calif.). When the concentration of [^3H]R1881 required to almost saturate AR in both cell lines was established (5.0 nM), the ability of the test compounds (1 nM-10 μM) to displace [^3H]R1881 (5.0 nM) from the receptors was determined as described above. The IC50 of each compound was determined by nonlinear regression with Graphpad Prism software (GraphPad Software, Inc, San Diego, Calif.)."}, "[7]": {"system": "LNCaP cells", "test": "MTT colorimetric anti-proliferative assay", "type": "cell-based, human", "description": "The cells were treated for 7 days with renewal of test compound and media on day 4. On the 7th day, medium was renewed and MTT (3-(4,5-dimethylthiazol-2-yl)-2,5-diphenyl-2H-tetrazolium bromide) (Sigma, St Louis, Mo., USA) solution (0.5 mg MTT per ml of media) was added to the medium such that the ratio of MTT: medium was 1:10. The cells were incubated with MTT for 2 hours. The medium was then aspirated and DMSO was added to solubilize the violet MTT-formazan product."}}, "note": "Where “and” joins values, the source holds several entries; their conditions need not be identical. Equal entries are not always repeated.", "data": [{"smiles": "C[C@]12CC[C@H](OC(=O)n3ccnc3)CC1=CC[C@@H]1[C@@H]2CC[C@]2(C)C(n3cnc4ccccc43)=CC[C@@H]12", "note": "[Compound 47, 3β-(1H-Imidazole-1-carboxylate)-17-(1H-benzimidazol-1-yl)-androsta-5,16-diene]", "values": [{"measurement": "down-regulation of truncated AR (AR-3)", "setting": "[1]", "value": "significant down-regulation"}, {"measurement": "down-regulation of full-length AR", "setting": "[2]", "value": "significant down-regulation"}, {"measurement": "IC50", "setting": "[3]", "value": "93.7 to 258 µM and 122 µM"}, {"measurement": "AR levels in the nucleus", "setting": "[4]", "value": "significant decrease in AR levels in the nucleus"}, {"measurement": "AR down-regulation, fold more active than compound 5", "setting": "[5]", "value": "greater than 8 fold"}, {"measurement": "melting point", "value": "194 to 196", "unit": "°C"}, {"measurement": "inhibition at 30 µM", "setting": "[6]", "value": 20, "unit": "%"}, {"measurement": "GI50", "setting": "[7]; Homo sapiens, LNCaP, 168 h, LNCaP, MTT, 7 days, Table 4, read-out: GI50 of C-3 modified compounds", "value": 0.87, "unit": "µM"}, {"measurement": "fold superior anti-proliferative activity", "setting": "[7]; relative to compound 5", "value": "~4", "unit": "fold"}]}]}
